Laboratory results as given in US20240350436A1, “METHODS FOR HAIR GROWTH” (THE REGENTS OF THE UNIVERSITY OF MICHIGAN, priority 2021, published 2024).

Key:
[1] = tested on: Male and female Balb/cJ mice; test: Hair regrowth on shaved dorsal skin of mice after topical treatment; type: in vivo
Method: Hair regrowth was monitored daily. […] The hair length was measured by digital pachymeter.
Drug administration bpV(pic) (Sigma Aldrich, San Louis, MO, USA) was reconstituted in sterile Milli-Q water. bpV(pic) was also used to prepare a 10 μM bpV(pic) gel using 2% carmellose gel base (vehicle). bpV(pic) or vehicle gel was topically applied to the skin twice a day.
The dorsal skin of male and female mice was shaved and treated with vehicle or bpV (pic) topically, twice a day for 21 days (FIG. 1A).
The dorsal skin of male and female mice was shaved and treated with vehicle or SF1670 (N-(9,10-Dioxo-9,10-dihydro-phenanthren-2-yl)-2,2-dimethylpropionamide, N-(9,10-dihydro-9,10-dioxo-2-phenanthrenyl)-2,2-dimethyl-propanamide) topically, twice a day for 5 weeks. Hairs were collected once a week and measured using a millimeter (mm) as the measurement unit.

[2] = tested on: Human epidermal keratinocytes (HEK); details: HEK monolayer, 48 hrs treatment (FIG. 3D)
Method: (§1) Flow cytometry analysis Isolation of skin single-cell suspension. Briefly, the subcutis underlying the dorsal skin was removed, and the epithelial cell layer was trypsinized for 2 hours at 37° C. Epithelial cell suspensions were filtered through 70 μm mesh filters (BD Bioscience, San Jose, CA, USA) to achieve a single cell suspension. Cells were maintained on ice. Immunofluorescence staining for CD34-FITC and CD49f-P.E./Cye5 primary antibodies (BD Pharmingen, San Jose, CA, USA) was performed to detected hair follicle stem cells. Antibodies were incubated with the cells for 30 minutes at 4° C. after cells were incubated with FcR blocking reagent (Miltenyi Biotec, Bergisch Gladbach, Germany). Human epidermal keratinocytes (HEK) (Cell Applications, Inc., San Diego, CA) were cultured in Epi-Vita Growth Medium (Cell Applications, Inc., San Diego, CA) and maintained at 37° C. with 5% of CO2 in a humidified incubator. Human epidermal keratinocytes (HEK) were cultured in a monolayer following instructions for culture of primary cells and received BpV(pic) or vehicle for 48 hrs. Treated cells were trypsinized and stained for CD44-APC (BD Pharmingen, San Jose, CA, USA) and Aldefluor kit (StemCell Technologies, Durham, NC, USA) according to the manufacturer's instructions to detected aldehyde dehydrogenase (ALDH) enzymatic activity. […]

hair follicle stem cells = details: treated mice, FACS (FIGS. 3B-3C)
Method: as §1

hair follicles = details: skin samples of treated mice, H&E (FIG. 2A)
Method: (§2) Skin samples were taken from treated and vehicle control mice and stained to evaluate skin histomorphology. Hair follicle cycle was evaluated by morphology and divided into 3 phases: growth phase (anagen); regression phase (catagen); and telogen. […] Proliferative cells in the hair follicle (follicular) and interfollicular epidermis (Interfollicular) were quantified for the identified timepoints.

[3] = tested on: proliferative cells in the hair follicle and interfollicular epidermis; details: after 10 days, BrdU positive cells per field
Method: BrdU labeling and cell proliferation BrdU (10 mg/ml) was injected in mice via IP two hours previous to the euthanasia. Tissue was collected and processed. The tissue was placed on slides and deparaffinized in xylene substitute and hydrated in descending grades of ethanol. Antigen retrieval was performed by HCL at 37° C. for 1 hour. Anti-BrdU (1:200, Novus Biologicals, Centennial, CO) was incubated overnight at 4° C., followed by secondary antibody conjugated with Alexa 488 incubation and counterstaining with Hoechst 33342. All slides were mounted using Fluoroshield. For quantification, ten fields were captured at a magnification of x400. The images were analyzed using ImageJ (NIH, Bethesda, MD, USA), and the proliferation was expressed as the number of positive cells per field.
as §2

Row | SMILES | hair regrowth (hair length) compared to vehicle control ([1]; topically twice a day for 5 weeks, hairs measured once a week (FIG. 4)) | stem cell number in human stem cells compared to vehicle control [2] | number of hair follicle stem cells compared to vehicle control (hair follicle stem cells) | hair follicle cycle phase by morphology (hair follicles) | hair regrowth (hair length) in comparison to the vehicle control ([1]; 10 μM gel topically twice a day for 21 days, shaved dorsal skin, all subjects (FIG. 1B)) | proliferative cells in the hair follicle (follicular) versus vehicle control [3] | proliferative cells in the interfollicular epidermis versus vehicle control [3]
1 | CC(C)(C)C(=O)Nc1ccc2c(c1)C(=O)C(=O)c1ccccc1-2 [SF1670, N-(9,10-Dioxo-9,10-dihydro-phenanthren-2-yl)-2,2-dimethylpropionamide] | faster hair regrowth |  |  |  |  |  | 
2 | O=C([O-])c1ccccn1.[K+].[K+].[O-2].[O-][O-].[O-][O-].[V+5] [bpV(pic), dipotassium bisperoxo(pyridine-2-carboxyl)oxovanadate] |  | confirmed | increased | anagen phase | induced hair regrowth | increased | increased
